Measured values from ChEMBL document CHEMBL3351974, “Development of constrained tamoxifen mimics and their antiproliferative properties against breast cancer cells” (Bioorg Med Chem Lett, 2015).
Where a name gives a salt, the structure may show the parent alone.

Experiments:
MDA-MB-231 = experiment: Antiproliferative activity against human MDA-MB-231 cells after 48 hrs by MTT assay; format: functional, cell-based; conditions: MDA-MB-231, 48 h
MCF7 = experiment: Antiproliferative activity against human MCF7 cells after 48 hrs by MTT assay; format: functional, cell-based; conditions: MCF7, 48 h
[1] = Antiproliferative activity against human MEpiC cells after 48 hrs by MTT assay; format: cell-based

O=C1C=CC2(C=C1)OC(=O)C(c1ccc([N+](=O)[O-])cc1)=C2c1ccccc1
IC50 (MDA-MB-231): 19 µM
IC50 (MCF7): 5.99 µM
IC50 [1]: 66.5 µM

COc1ccc(C2=C(c3ccccc3)C3(C=CC(=O)C=C3)OC2=O)cc1
IC50 (MDA-MB-231): 64 µM
IC50 (MCF7): 5.86 µM
IC50 [1]: 11.7 µM

O=C1C=CC2(C=C1)OC(=O)C(I)=C2c1ccccc1
IC50 (MDA-MB-231): 7.51 µM
IC50 (MCF7): 41.5 µM
IC50 [1]: 6.33 µM

COc1cc(C2=C(c3ccccc3)C3(C=CC(=O)C=C3)OC2=O)cc(OC)c1OC
IC50 (MDA-MB-231): 9.73 µM
IC50 (MCF7): 5.79 µM
IC50 [1]: 6.61 µM

COc1c(Br)cc(C)cc1C1=C(c2ccccc2)C2(C=CC(=O)C=C2)OC1=O
IC50 (MDA-MB-231): 9.45 µM
IC50 (MCF7): 5.85 µM
IC50 [1]: 14.7 µM

COc1cccc2c1C(=O)c1c(O)c3c(c(O)c1C2=O)C[C@@](O)(C(=O)CO)C[C@@H]3O[C@H]1C[C@H](N)[C@H](O)[C@H](C)O1 [DOXORUBICIN HYDROCHLORIDE]
IC50 (MDA-MB-231): 4.06 µM

O=C1C=CC2(C=C1)OC(=O)C(c1ccc3c(c1)OCO3)=C2c1ccccc1
IC50 (MDA-MB-231): 9.12 µM
IC50 (MCF7): 5.81 µM
IC50 [1]: 34.2 µM

COc1ccc(OC(=O)C#Cc2ccccc2)cc1
IC50 (MDA-MB-231): 6.66 µM
IC50 (MCF7): 52.6 µM
IC50 [1]: 19.1 µM

COc1ccc(F)cc1C1=C(c2ccccc2)C2(C=CC(=O)C=C2)OC1=O
IC50 (MDA-MB-231): 10 µM
IC50 (MCF7): 5.73 µM
IC50 [1]: 13.5 µM

O=C1C=CC2(C=C1)OC(=O)C=C2c1ccccc1
IC50 (MDA-MB-231): 15.9 µM
IC50 (MCF7): 6.46 µM
IC50 [1]: 7.67 µM

O=C1C=CC2(C=C1)OC(=O)C(c1cc3ccccc3s1)=C2c1ccccc1
IC50 (MDA-MB-231): 32.9 µM
IC50 (MCF7): 5.9 µM
IC50 [1]: 10.8 µM

O=Cc1ccc(C2=C(c3ccccc3)C3(C=CC(=O)C=C3)OC2=O)s1
IC50 (MDA-MB-231): 19.8 µM
IC50 (MCF7): 6.23 µM
IC50 [1]: 7.08 µM

O=C1C=CC2(C=C1)OC(=O)C(c1cc3ccccc3o1)=C2c1ccccc1
IC50 (MDA-MB-231): 21.2 µM
IC50 (MCF7): 5.8 µM
IC50 [1]: 66.5 µM

O=C1C=CC2(C=C1)OC(=O)C(c1ccc(O)cc1)=C2c1ccccc1
IC50 (MDA-MB-231): 61 µM
IC50 (MCF7): 6 µM
IC50 [1]: 16.8 µM

O=C1C=CC2(C=C1)OC(=O)C(c1ccc(CO)cc1)=C2c1ccccc1
IC50 (MDA-MB-231): 8.85 µM
IC50 (MCF7): 5.76 µM
IC50 [1]: 3.86 µM

N#Cc1ccc(C2=C(c3ccccc3)C3(C=CC(=O)C=C3)OC2=O)cc1
IC50 (MDA-MB-231): 8.74 µM
IC50 (MCF7): 19 µM
IC50 [1]: 8.89 µM

O=C1C=CC2(C=C1)OC(=O)C(c1ccc(F)cc1)=C2c1ccccc1
IC50 (MDA-MB-231): 38.6 µM
IC50 (MCF7): 6.32 µM
IC50 [1]: 11.1 µM

O=C1C=CC2(C=C1)OC(=O)C(c1ccc(C(=O)O)cc1)=C2c1ccccc1
IC50 (MDA-MB-231): 15.2 µM
IC50 (MCF7): 5.95 µM
IC50 [1]: 10.4 µM
